Experimental data: ChEMBL document CHEMBL1145802, “Dual probes for the dopamine transporter and sigma1 receptors: novel piperazinyl alkyl-bis(4'-fluorophenyl)amine analogues as potential cocaine-abuse therapeutic agents” (J Med Chem, 2003)

Assays:
[1] = molecular target: Sodium-dependent serotonin transporter (Rattus norvegicus, UniProt P31652); assay: Binding affinity against serotonin transporter by displacement of [3H]citalopram in rat brain; type: tissue-based
Cavia porcellus = organism: Cavia porcellus; assay: Ratio of binding affinities for dopamine transporter over sigma-1 receptor
Sigma 2 receptor = assay: Binding affinity against Sigma receptor type 2 was determined by the displacement of [3H]DTG/dextrallorphan radioligand; set-up: species or system Rattus norvegicus
[2] = molecular target: Monoamine transporters; serotonin & dopamine (Rattus norvegicus) (UniProt P31652+P23977); assay: Ratio for the binding affinities of dopamine transporter over serotonin transporter; type: protein assay
Chain of Monoamine transporters; serotonin & dopamine (Rattus norvegicus) (P23977 whole entry, looked up): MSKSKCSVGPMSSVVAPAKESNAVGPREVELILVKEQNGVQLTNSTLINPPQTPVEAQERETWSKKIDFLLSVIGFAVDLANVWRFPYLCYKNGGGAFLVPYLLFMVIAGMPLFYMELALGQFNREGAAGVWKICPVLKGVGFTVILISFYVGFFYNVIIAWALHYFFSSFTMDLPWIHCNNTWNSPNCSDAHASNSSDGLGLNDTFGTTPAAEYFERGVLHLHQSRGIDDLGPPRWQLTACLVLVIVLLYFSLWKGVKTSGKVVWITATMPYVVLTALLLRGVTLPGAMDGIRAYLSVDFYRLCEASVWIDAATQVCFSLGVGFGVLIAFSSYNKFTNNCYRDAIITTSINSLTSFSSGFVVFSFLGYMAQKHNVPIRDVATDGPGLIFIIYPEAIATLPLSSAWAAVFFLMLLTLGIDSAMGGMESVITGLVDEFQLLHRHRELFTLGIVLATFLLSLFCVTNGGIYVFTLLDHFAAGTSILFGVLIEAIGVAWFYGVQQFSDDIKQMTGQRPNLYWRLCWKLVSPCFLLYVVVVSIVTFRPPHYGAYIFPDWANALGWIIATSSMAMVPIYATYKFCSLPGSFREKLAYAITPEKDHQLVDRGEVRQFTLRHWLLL
Chain of Monoamine transporters; serotonin & dopamine (Rattus norvegicus) (P31652 whole entry, looked up): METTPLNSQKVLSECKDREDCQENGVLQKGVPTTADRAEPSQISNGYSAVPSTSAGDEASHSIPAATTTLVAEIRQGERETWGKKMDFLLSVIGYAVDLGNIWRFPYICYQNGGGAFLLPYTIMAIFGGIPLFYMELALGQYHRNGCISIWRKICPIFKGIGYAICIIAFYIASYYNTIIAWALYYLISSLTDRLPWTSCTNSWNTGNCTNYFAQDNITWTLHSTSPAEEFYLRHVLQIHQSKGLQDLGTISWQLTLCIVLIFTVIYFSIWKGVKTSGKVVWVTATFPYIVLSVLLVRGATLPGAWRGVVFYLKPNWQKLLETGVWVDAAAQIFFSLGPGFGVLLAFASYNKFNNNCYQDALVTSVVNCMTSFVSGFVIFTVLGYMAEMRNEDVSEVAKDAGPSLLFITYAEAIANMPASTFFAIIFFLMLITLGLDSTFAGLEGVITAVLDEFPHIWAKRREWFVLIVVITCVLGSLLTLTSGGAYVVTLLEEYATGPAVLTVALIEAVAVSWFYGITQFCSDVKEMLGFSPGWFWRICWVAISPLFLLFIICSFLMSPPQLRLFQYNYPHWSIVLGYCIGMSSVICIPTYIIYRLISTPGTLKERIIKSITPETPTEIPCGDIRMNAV

[3] = molecular target: Monoamine transporters; Norepininephrine & dopamine (Rattus norvegicus) (UniProt P23977+Q9WTR4); assay: Ratio of binding affinities for dopamine and norepinephrine transporters; type: protein assay
[4] = molecular target: Norepinephrine transporter (Rattus norvegicus, UniProt Q9WTR4); assay: Displacement of [3H]nisoxetine from rat brain norepinephrine transporter; type: tissue-based
Chain of Norepinephrine transporter (Q9WTR4 whole entry): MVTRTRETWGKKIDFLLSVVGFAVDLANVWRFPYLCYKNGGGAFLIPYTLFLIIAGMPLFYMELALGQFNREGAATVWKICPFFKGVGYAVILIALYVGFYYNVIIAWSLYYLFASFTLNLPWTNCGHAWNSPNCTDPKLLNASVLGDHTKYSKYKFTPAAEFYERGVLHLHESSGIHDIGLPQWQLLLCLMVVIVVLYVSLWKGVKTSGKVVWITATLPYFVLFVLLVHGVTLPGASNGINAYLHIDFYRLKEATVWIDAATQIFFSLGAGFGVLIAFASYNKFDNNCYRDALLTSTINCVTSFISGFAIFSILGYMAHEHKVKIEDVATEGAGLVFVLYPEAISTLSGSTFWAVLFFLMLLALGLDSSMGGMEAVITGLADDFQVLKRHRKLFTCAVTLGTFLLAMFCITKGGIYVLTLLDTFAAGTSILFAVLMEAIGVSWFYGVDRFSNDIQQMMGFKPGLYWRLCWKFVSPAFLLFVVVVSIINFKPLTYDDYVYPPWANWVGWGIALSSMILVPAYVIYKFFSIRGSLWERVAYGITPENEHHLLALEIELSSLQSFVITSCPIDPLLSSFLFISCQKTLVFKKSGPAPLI

[5] = molecular target: Sodium-dependent dopamine transporter (Rattus norvegicus, UniProt P23977); assay: Binding affinity against dopamine transporter was determined by the displacement of [3H]WIN-35428 radioligand in rat brain; type: tissue-based
Chain of Sodium-dependent dopamine transporter (P23977 whole entry): as the sequence (P23977 whole entry, looked up) above

Chain of Sodium-dependent serotonin transporter (P31652 whole entry): as the sequence (P31652 whole entry, looked up) above

Row | Ki [1] [nM] | Ratio (Cavia porcellus) | Ki (Sigma 2 receptor) [nM] | Ratio [2] | Ratio [3] | Ki [4] [nM] | Ki [5] [nM] | Compound
1 | 133 | 23 | 385 | 2 | 7 | 396 | 60.8 | Fc1ccc(N(CCCN2CCNCC2)c2ccc(F)cc2)cc1
2 |  | 1.1 |  |  |  |  | 3890 | C[C@@H]1CN(CCCn2c3ccc(Br)cc3c3cc(Br)ccc32)C[C@@H](C)N1
3 |  | 0.4 |  |  |  |  | 263 | C[C@@H]1CN(CCCn2c3ccccc3c3ccccc32)C[C@@H](C)N1CCCc1ccccc1
4 | 4350 |  |  |  |  |  | 180 | C[C@@H]1CN(CCCN(c2ccc(F)cc2)c2ccc(F)cc2)C[C@@H](C)N1CCc1ccc(Cl)c(Cl)c1
5 |  | 0.1 | 216 | 18 | > 110 |  | 272 | C[C@@H]1CN(CCCN(c2ccccc2)c2ccccc2)C[C@@H](C)N1CCc1ccc(Cl)c(Cl)c1
6 |  | 0.2 |  | 87 | 8 |  |  | C[C@@H]1CN(CCCN(c2ccccc2)c2ccccc2)C[C@@H](C)N1
7 | 1210 | 3.7 |  | 67 | 38 | 682 | 18.1 | Fc1ccc(N(CCCN2CCN(CCCc3ccccc3)CC2)c2ccc(F)cc2)cc1
8 |  | 2.4 |  |  |  |  | 2400 | C[C@@H]1CN(CCCn2c3ccccc3c3cc(N)ccc32)C[C@@H](C)N1
9 |  | 1.3 |  |  |  |  | 436 | C[C@@H]1CN(CCCn2c3ccccc3c3ccccc32)C[C@@H](C)N1C
10 |  | 5.5 |  |  |  |  | 109 | C[C@@H]1CN(CCCn2c3ccccc3c3cc([N+](=O)[O-])ccc32)C[C@@H](C)N1
11 | 3730 | 0.5 | 78.1 | 140 | 190 | 5210 | 27.6 | Fc1ccc(N(CCCN2CCN(Cc3ccccc3)CC2)c2ccc(F)cc2)cc1
12 |  | 1.6 |  | 170 | 219 |  | 77.1 | C[C@@H]1CN(CCCN(c2ccc(F)cc2)c2ccc(F)cc2)C[C@@H](C)N1
13 |  | 1.6 |  | 20 | 60 |  |  | C[C@@H]1CN(CCCN(c2ccccc2)c2ccccc2)C[C@@H](C)N1CCCc1ccccc1
14 |  | 0.5 | 18.6 | 94 | 45 |  | 22.8 | C[C@@H]1CN(CCCN(c2ccc(F)cc2)c2ccc(F)cc2)C[C@@H](C)N1CCCc1ccccc1

Row | Compound | Ki [1] [nM] | Ratio (Cavia porcellus) | Ki (Sigma 2 receptor) [nM] | Ratio [2] | Ratio [3] | Ki [4] [nM] | Ki [5] [nM]
15 | CCCN1CCC[C@@H](c2cccc(O)c2)C1 [PRECLAMOL] |  |  |  |  |  |  | 3270
16 | OC(CCN1CCN(CCCN(c2ccc(F)cc2)c2ccc(F)cc2)CC1)c1ccccc1 (configuration not stated) | 803 |  |  |  |  |  | 8.5
17 | C[C@@H]1CN(CCCn2c3ccc([N+](=O)[O-])cc3c3cc([N+](=O)[O-])ccc32)C[C@@H](C)N1 |  |  |  |  |  |  | 174000
18 | CCN(CC)CCOC(=O)C1(c2ccccc2)CCCC1 |  |  |  |  |  |  | 5180
